Values quoted from earlier work as cited in article PMC8513935.

Assay: log P octanol/water from commercial databases, averaged (the ESI)
Conditions: Octanol (wet), 25 C
In the case of `c1ccc2c(c1)-c1cccc3cccc-2c13`, the log K of transfer, water to solvent is listed as 5.16 log10 K. For `CCCC(C)O` (centres unmarked), the log K of transfer, water to solvent is given as 1.25 log10 K.

Assay: experimental, compiled by the authors from the literature (the ESI cites the sources)
Conditions: 1,2-Dichloroethane, 25 C
For `c1ccc2c(c1)-c1cccc3cccc-2c13`, the log K of transfer, gas to solvent is listed as 9.52 log10 K. For `CCCC(C)O` (centres unmarked), the log K of transfer, gas to solvent is listed as 4 log10 K.

Same assay, conditions: 2-Methylpropan-1-ol, 25 C
For `c1ccc2c(c1)-c1cccc3cccc-2c13`, the log K of transfer, gas to solvent is listed as 8.1 log10 K.

Same assay, conditions: 3-Methylbutan-1-ol, 25 C
For `c1ccc2c(c1)-c1cccc3cccc-2c13`, the log K of transfer, gas to solvent is given as 8.25 log10 K.

Same assay, conditions: Acetonitrile, 25 C
In the case of `c1ccc2c(c1)-c1cccc3cccc-2c13`, the log K of transfer, gas to solvent is given as 8.75 log10 K.

Same assay, conditions: Benzene, 25 C
In the case of `c1ccc2c(c1)-c1cccc3cccc-2c13`, the log K of transfer, gas to solvent is given as 9.46 log10 K.

Same assay, conditions: Butan-1-ol, 25 C
In the case of `c1ccc2c(c1)-c1cccc3cccc-2c13`, the log K of transfer, gas to solvent is given as 8.4 log10 K.

Same assay, conditions: Butan-2-ol, 25 C
In the case of `c1ccc2c(c1)-c1cccc3cccc-2c13`, the log K of transfer, gas to solvent is listed as 8.25 log10 K.

Same assay, conditions: CCl4, 25 C
For `c1ccc2c(c1)-c1cccc3cccc-2c13`, the log K of transfer, gas to solvent is given as 9.27 log10 K. In the case of `CCCC(C)O` (centres unmarked), the log K of transfer, gas to solvent is listed as 3.45 log10 K.

Same assay, conditions: Chloroform, 25 C
For `c1ccc2c(c1)-c1cccc3cccc-2c13`, the log K of transfer, gas to solvent is listed as 9.56 log10 K.

Same assay, conditions: Cyclohexane, 25 C
In the case of `c1ccc2c(c1)-c1cccc3cccc-2c13`, the log K of transfer, gas to solvent is listed as 8.51 log10 K.

Same assay, conditions: Di-n-butyl ether, 25 C
In the case of `c1ccc2c(c1)-c1cccc3cccc-2c13`, the log K of transfer, gas to solvent is given as 8.84 log10 K.

Same assay, conditions: Diethyl Ether, 25 C
In the case of `c1ccc2c(c1)-c1cccc3cccc-2c13`, the log K of transfer, gas to solvent is given as 9.08 log10 K.

Same assay, conditions: Ethanol, 25 C
In the case of `c1ccc2c(c1)-c1cccc3cccc-2c13`, the log K of transfer, gas to solvent is listed as 8.33 log10 K.

Same assay, conditions: Heptan-1-ol, 25 C
In the case of `c1ccc2c(c1)-c1cccc3cccc-2c13`, the log K of transfer, gas to solvent is listed as 8.72 log10 K.

Same assay, conditions: Hexadecane, 25 C
In the case of `c1ccc2c(c1)-c1cccc3cccc-2c13`, the log K of transfer, gas to solvent is listed as 8.82 log10 K. For `CCCC(C)O` (centres unmarked), the log K of transfer, gas to solvent is given as 2.84 log10 K.

Same assay, conditions: Hexan-1-ol, 25 C
For `c1ccc2c(c1)-c1cccc3cccc-2c13`, the log K of transfer, gas to solvent is given as 8.56 log10 K.

Same assay, conditions: Hexane, 25 C
For `c1ccc2c(c1)-c1cccc3cccc-2c13`, the log K of transfer, gas to solvent is listed as 8.41 log10 K.

Same assay, conditions: Methanol, 25 C
In the case of `c1ccc2c(c1)-c1cccc3cccc-2c13`, the log K of transfer, gas to solvent is listed as 8.18 log10 K.

Same assay, conditions: Octan-1-ol, 25 C
In the case of `c1ccc2c(c1)-c1cccc3cccc-2c13`, the log K of transfer, gas to solvent is listed as 8.61 log10 K.

Same assay, conditions: Pentan-1-ol, 25 C
For `c1ccc2c(c1)-c1cccc3cccc-2c13`, the log K of transfer, gas to solvent is listed as 8.49 log10 K.

Same assay, conditions: Propan-1-ol, 25 C
In the case of `c1ccc2c(c1)-c1cccc3cccc-2c13`, the log K of transfer, gas to solvent is given as 8.31 log10 K.

Same assay, conditions: Propan-2-ol, 25 C
In the case of `c1ccc2c(c1)-c1cccc3cccc-2c13`, the log K of transfer, gas to solvent is listed as 8.15 log10 K.

Same assay, conditions: Toluene, 25 C
For `c1ccc2c(c1)-c1cccc3cccc-2c13`, the log K of transfer, gas to solvent is listed as 9.38 log10 K.

Same assay, conditions: Water, 25 C
In the case of `c1ccc2c(c1)-c1cccc3cccc-2c13`, the log K of transfer, gas to solvent is listed as 3.44 log10 K. In the case of `CCCC(C)O` (centres unmarked), the log K of transfer, gas to solvent is given as 3.22 log10 K.

Assay: derived by the authors as gas->solvent minus gas->water (a hypothetical dry solvent; the ESI), not a two-phase measurement
Conditions: 1,2-Dichloroethane, 25 C
For `c1ccc2c(c1)-c1cccc3cccc-2c13`, the log K of transfer, water to solvent is given as 6.08 log10 K. For `CCCC(C)O` (centres unmarked), the log K of transfer, water to solvent is given as 0.78 log10 K.

Same assay, conditions: 2-Methylpropan-1-ol, 25 C
For `c1ccc2c(c1)-c1cccc3cccc-2c13`, the log K of transfer, water to solvent is given as 4.66 log10 K.

Same assay, conditions: 3-Methylbutan-1-ol, 25 C
For `c1ccc2c(c1)-c1cccc3cccc-2c13`, the log K of transfer, water to solvent is listed as 4.81 log10 K.

Same assay, conditions: Acetonitrile, 25 C
For `c1ccc2c(c1)-c1cccc3cccc-2c13`, the log K of transfer, water to solvent is listed as 5.31 log10 K.

Same assay, conditions: Benzene, 25 C
In the case of `c1ccc2c(c1)-c1cccc3cccc-2c13`, the log K of transfer, water to solvent is listed as 6.02 log10 K.

Same assay, conditions: Butan-1-ol, 25 C
In the case of `c1ccc2c(c1)-c1cccc3cccc-2c13`, the log K of transfer, water to solvent is given as 4.96 log10 K.

Same assay, conditions: Butan-2-ol, 25 C
In the case of `c1ccc2c(c1)-c1cccc3cccc-2c13`, the log K of transfer, water to solvent is given as 4.81 log10 K.

Same assay, conditions: CCl4, 25 C
In the case of `c1ccc2c(c1)-c1cccc3cccc-2c13`, the log K of transfer, water to solvent is listed as 5.83 log10 K. In the case of `CCCC(C)O` (centres unmarked), the log K of transfer, water to solvent is listed as 0.23 log10 K.

Same assay, conditions: Chloroform, 25 C
For `c1ccc2c(c1)-c1cccc3cccc-2c13`, the log K of transfer, water to solvent is listed as 6.12 log10 K.

Same assay, conditions: Cyclohexane, 25 C
In the case of `c1ccc2c(c1)-c1cccc3cccc-2c13`, the log K of transfer, water to solvent is listed as 5.07 log10 K.

Same assay, conditions: Di-n-butyl ether, 25 C
In the case of `c1ccc2c(c1)-c1cccc3cccc-2c13`, the log K of transfer, water to solvent is listed as 5.41 log10 K.

Same assay, conditions: Diethyl Ether, 25 C
In the case of `c1ccc2c(c1)-c1cccc3cccc-2c13`, the log K of transfer, water to solvent is given as 5.64 log10 K.

Same assay, conditions: Ethanol, 25 C
In the case of `c1ccc2c(c1)-c1cccc3cccc-2c13`, the log K of transfer, water to solvent is listed as 4.89 log10 K.

Same assay, conditions: Heptan-1-ol, 25 C
In the case of `c1ccc2c(c1)-c1cccc3cccc-2c13`, the log K of transfer, water to solvent is given as 5.28 log10 K.

Same assay, conditions: Hexadecane, 25 C
In the case of `c1ccc2c(c1)-c1cccc3cccc-2c13`, the log K of transfer, water to solvent is listed as 5.38 log10 K. In the case of `CCCC(C)O` (centres unmarked), the log K of transfer, water to solvent is listed as -0.38 log10 K.

Same assay, conditions: Hexan-1-ol, 25 C
For `c1ccc2c(c1)-c1cccc3cccc-2c13`, the log K of transfer, water to solvent is listed as 5.13 log10 K.

Same assay, conditions: Hexane, 25 C
In the case of `c1ccc2c(c1)-c1cccc3cccc-2c13`, the log K of transfer, water to solvent is given as 4.98 log10 K.

Same assay, conditions: Methanol, 25 C
In the case of `c1ccc2c(c1)-c1cccc3cccc-2c13`, the log K of transfer, water to solvent is listed as 4.74 log10 K.

Same assay, conditions: Octan-1-ol(dry), 25 C
In the case of `c1ccc2c(c1)-c1cccc3cccc-2c13`, the log K of transfer, water to solvent is listed as 5.17 log10 K.

Same assay, conditions: Pentan-1-ol, 25 C
In the case of `c1ccc2c(c1)-c1cccc3cccc-2c13`, the log K of transfer, water to solvent is given as 5.05 log10 K.

Same assay, conditions: Propan-1-ol, 25 C
In the case of `c1ccc2c(c1)-c1cccc3cccc-2c13`, the log K of transfer, water to solvent is given as 4.87 log10 K.

Same assay, conditions: Propan-2-ol, 25 C
In the case of `c1ccc2c(c1)-c1cccc3cccc-2c13`, the log K of transfer, water to solvent is listed as 4.72 log10 K.

Same assay, conditions: Toluene, 25 C
In the case of `c1ccc2c(c1)-c1cccc3cccc-2c13`, the log K of transfer, water to solvent is listed as 5.94 log10 K.
